Measured values reported in patent US11344532B2, “Topically administrable formulation for the control and prevention of animal parasites” (BAYER ANIMAL HEALTH GMBH, priority 2017, dated 2022).
Read-outs that look alike come from different tables or passages of the source.

Columns and labels:
[1] = solubilities of active compounds in solvents; format: physicochemical
Method: The flash point of 130° C. is sufficiently high for safe production. Studies with selected fluorinated antiparasitics in triethyl phosphate formulations show good and long-lasting activity against fleas and various ticks on dogs and cats.

[2] = skin compatibility of triethyl phosphate; settings: with rats, dogs and cats
[3] = toxicity of triethyl phosphate
[4] = solvent 83.3% propylene carbonate 16.7% benzyl alcohol

| SMILES | solubility in 83.3% propylene carbonate 16.7% benzyl alcohol [1, 4] | solubility in propylene carbonate ([1]; solvent propylene carbonate) | solubility in triethyl phosphate ([1]; solvent triethyl phosphate) | skin compatibility [2] | toxicity [3] | solubility in 83.3% propylene carbonate 16.7% benzyl alcohol [1] | solubility in propylene carbonate [1] | solubility in triethyl phosphate [1] |
| --- | --- | --- | --- | --- | --- | --- | --- | --- |
| O=C(NC1CC1)c1cc(-c2cnn(-c3c(Cl)cc(C(F)(C(F)(F)F)C(F)(F)F)cc3C(F)(F)F)c2)cnc1Cl [Compound 2, 2-chloro-5-[1-[2-chloro-4-[1,2,2,2-tetrafluoro-1-(trifluoromethyl)ethyl]-6-(trifluoromethyl)phenyl]-1H-pyrazol-4-yl]-N-cyclopropyl-3-pyridinecarboxamide] | 14% (w/w) | 4% (w/w) | 40% (w/w) | – | – | – | – | – |
| Cn1nc(C(F)(F)C(F)(F)F)c(C(F)(F)F)c1-n1cc(-c2ccc(Cl)c(C(=O)NC3(C#N)CC3)c2)cn1 [tigolaner] | 20% (w/w) | 26% (w/w) | 52% (w/w) | – | – | – | – | – |
| O=C(NC1CC1)c1cc(-c2cnn(-c3c(Cl)cc(C(F)(C(F)(F)F)C(F)(F)F)cc3OC(F)(F)F)c2)cnc1Cl [Compound 1, 2-chloro-5-[1-[2-chloro-4-[1,2,2,2-tetrafluoro-1-(trifluoromethyl)ethyl]-6-(trifluoromethoxy)phenyl]-1H-pyrazol-4-yl]-N-cyclopropyl-3-pyridinecarboxamide] | 17% (w/w) | 5% (w/w) | 44% (w/w) | – | – | – | – | – |
| CCOP(=O)(OCC)OCC [Triethyl phosphate, triethyl phosphate] | – | – | – | excellent skin compatibility | low toxicity | – | – | – |
| Cc1cc(C2=NOC(c3cc(Cl)cc(Cl)c3)(C(F)(F)F)C2)ccc1C(=O)NCC(=O)NCC(F)(F)F (centres unmarked) [fluralaner] | 13% (w/w) | 7% (w/w) | 41% (w/w) | – | – | – | – | – |
| CON=CNC(=O)c1ccc(C2=NOC(c3cc(Cl)cc(Cl)c3)(C(F)(F)F)C2)cc1C (centres unmarked) [fluxametamide] | 6% (w/w) | 3% (w/w) | 20% (w/w) | – | – | – | – | – |
| N#Cc1nn(-c2c(Cl)cc(C(F)(F)F)cc2Cl)c(NCc2ccccn2)c1SC(F)F [pyriprole] | 28% (w/w) | 21% (w/w) | 49% (w/w) | – | – | – | – | – |
| N#Cc1nn(-c2c(Cl)cc(C(F)(F)F)cc2Cl)c(N)c1[S+]([O-])C(F)(F)F (centres unmarked) [fipronil] | – | – | – | – | – | 5% (w/w) | 11% (w/w) | 36% (w/w) |
